Each block holds one molecule with its values, some of them ahead of it. Starred links: 1 amine or outer side, 2 acyl side, 3 side chain; linkers in the order of their positions; H or OH if unused. Non-standard residues stand in square brackets, D forms with d. Residues, ends and D or L forms follow the SMILES beside them. X2 = CC(C)C[C@H](NC(=S)[C@@H](CC(C)C)N[*:1])C(=O)[*:2]; X4 = CC(C)C[C@H](N[*:1])C(=S)N1CCC[C@@H]1C(=O)[*:2]; X16 = CC(C)C[C@H](N[*:1])C(=S)N[C@H](C)C(=O)[*:2]; NMeL = CN[C@@H](CC(C)C)C(=O)O
Tests used:
in vitro [1] = conditions: human, microsomes
Protocol: (§1) A stability assessment of the peptides was done in simulated gastric (SGF) and intestinal (SIF) fluids and human liver microsomes. The degradation kinetics of the aliquoted samples at desired time points were analyzed through RP-HPLC.

in vivo = conditions: male, Wistar, rat
Protocol: (§2) All animals were housed individually in the animal facility at Anthem Biosciences Pvt. Ltd and were acclimatized for 3 days. All animals were fasted overnight before dosing, whereas access to water was provided ad libitum. Peptides were administered orally and via s.c. route and blood samples were collected at different time points through a jugular vein catheter.

[2] = format: physicochemical
[3] = format: physicochemical; remark: listed apart in the source
physchem = conditions: pH 7.4
[4] = HDX of amide protons by NMR in CDCl3:CD3OD (8:2)
Protocol: (§3) As hydrogen bonding and solvation of NH groups play an important role in the permeability of macrocycles, we determined the solvent accessibility of individual amide protons in 10 and 10a–10f by hydrogen-deuterium exchange (HDX) through NMR spectroscopy (Figs. 2a–c).
(§4) Spectra were recorded on a Bruker AV 500 MHz spectrometer at 25 °C.

[5] = rat, in vivo, po, 10 mg/kg
Protocol: as §2

in vitro [6] = conditions: pig, simulated intestinal fluid
pepsin = pepsin (Sus scrofa, UniProt P00791); experiment: in vitro; conditions: simulated gastric fluid, pH 1.2
Protocol: as §1

[7] = PAMPA passive permeability; format: in vitro ADME; conditions: for Papp: Pe Avg;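 as to all read-outs here: passive permeability across an artificial membrane in 96-well pre-coated PAMPA plates, which lack transporters and efflux systems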
Protocol: Encouraged by this, the passive permeability of the analogs was evaluated using an artificial membrane (PAMPA), which measures permeability of compounds in the absence of transporters and efflux systems[32].
96-well BD Corning® pre-coated PAMPA plates were used following the supplier’s protocol, details in Supplementary Information.

in vitro [8] = conditions: both, human, plasma
Protocol: Blood was freshly drawn from three healthy adults, two male and one person of 26–28 year old. […] The plasma was separated by centrifugation. […] For checking metabolic stability, the required volume of plasma was pre-incubated at 37 °C prior to the experiment for 2 min, followed by spiking with the peptides. At different time points, plasma was aliquoted. The supernatant was separated and used for RP-HPLC quantification. Rapid Equilibrium Dialysis (RED) assay was performed to assess the plasma protein binding of the peptides following the supplier’s protocol.

[9] = HDX of amide protons by NMR in DMSO-d6:D2O (8:2); conditions: HDX by NMR, 20% D2O in DMSO-d6
Protocol: as §3, §4

in vitro [10] = conditions: both, human, plasma; remark: listed apart in the source
[11] = Retention in hydrophobic C18 column by HPLC; conditions: Supplementary Fig 3d, logD7.4 vs tR
in vitro [12] = format: in vitro ADME, human
Protocol: (§5) The Caco-2 cell (HTB-37^TM from ATCC, procured from NCCS, Pune) monolayer was washed and pre-incubated at 37 °C and 5% CO2 for 30 min with HBSS-HEPES buffer containing 1% DMSO prior to experimentation. The assay was performed 21 days post-seeding of cells. TEER values were measured before starting and after the completion of the assay. Acceptor and donor well concentrations of the peptides and controls were assessed through LC-MS/MS.

Caco-2 cells = experiment: in vitro; format: in vitro ADME, human; conditions: Caco-2
Protocol: as §5

[13] = 20% CD3OD in CDCl3, % remaining after 24 hours
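For Papp A-B avg (second block) in this document: Caco-2 monolayers used 21 days after seeding in HBSS-HEPES buffer with 1% DMSO, donor and acceptor levels quantified by LC-MS/MS, TEER checked before and after.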
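For Papp A-B set 1 (second block) in this document: Caco-2 monolayers used 21 days after seeding in HBSS-HEPES buffer with 1% DMSO, donor and acceptor levels quantified by LC-MS/MS, TEER checked before and after.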
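For Papp A-B set 2 (second block) in this document: Caco-2 monolayers used 21 days after seeding in HBSS-HEPES buffer with 1% DMSO, donor and acceptor levels quantified by LC-MS/MS, TEER checked before and after.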
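For Papp B-A avg (second block) in this document: Caco-2 monolayers used 21 days after seeding in HBSS-HEPES buffer with 1% DMSO, donor and acceptor levels quantified by LC-MS/MS, TEER checked before and after.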

Sequence of pepsin (P00791 60-385): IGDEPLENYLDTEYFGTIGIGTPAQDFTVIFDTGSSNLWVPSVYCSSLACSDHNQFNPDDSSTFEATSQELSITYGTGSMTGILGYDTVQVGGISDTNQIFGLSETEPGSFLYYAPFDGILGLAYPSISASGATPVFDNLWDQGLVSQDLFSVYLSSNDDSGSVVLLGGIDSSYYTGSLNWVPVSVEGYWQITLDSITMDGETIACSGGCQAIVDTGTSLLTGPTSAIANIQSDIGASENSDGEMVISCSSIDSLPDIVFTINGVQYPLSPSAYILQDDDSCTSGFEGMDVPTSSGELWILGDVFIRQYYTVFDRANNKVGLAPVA
Protocol for human liver microsomes: as §1

microsomal CLint (in vitro [1]): 29.5 µL/min/mg | remaining at 5 min (in vitro [1]): 75% | remaining at 10 min (in vitro [1]): 65% | remaining at 20 min (in vitro [1]): 64% | remaining at 0.5 h (in vitro [1]): 58% | remaining at 0.75 h (in vitro [1]): 52% | remaining at 1 h (in vitro [1]): 44% | AUC(0-t) (in vivo; iv): 146 ng·h/mL | Cmax (in vivo; iv): 48.1 ng/mL | MRT (in vivo; iv): 2.8 h | Vd (in vivo; iv): 28.6 L/kg | clearance (in vivo; iv): 91.1 mL/min/kg | bioavailability (in vivo; po): 1.8% | AUC(0-t) (in vivo; po, 10 mg/kg): 26.9 ng·h/mL | Cmax (in vivo; po, 10 mg/kg): 15 ng/mL | MRT (in vivo; po, 10 mg/kg): 2 h | level at 3 h (in vivo; po, 10 mg/kg): 3 ng/mL | % solubility [2]: 58% | logD heptane ethylene glycol [3]: 0.97 | logD (physchem): 1.21 | Half-life of D-Leu1 amide proton (HDX) ([4]; 20% CD3OD in CDCl3): 19.25 h | Half-life of Leu2 amide proton (HDX) ([4]; 20% CD3OD in CDCl3): 0.333 h | Half-life of Leu3 amide proton (HDX) ([4]; 20% CD3OD in CDCl3): > 24 h | Half-life of Leu6 amide proton (HDX) ([4]; 20% CD3OD in CDCl3): > 24 h | Half-life of Tyr5 amide proton (HDX) ([4]; 20% CD3OD in CDCl3): > 24 h | % intact NH, Leu3 [4, 13]: 80% | % intact NH, Leu6 [4, 13]: 89% | % intact NH, Tyr5 [4, 13]: 80% | AUClast p.o [5]: 26.9 ng·h/mL | time over which the peptide is detectable in plasma [5]: ≥ 8 h | half-life (in vitro [6]): 2.45 h | remaining at 10 min (in vitro [6]): 78.4% | remaining at 0.5 h (in vitro [6]): 66% | remaining at 1 h (in vitro [6]): 55.9% | remaining at 2 h (in vitro [6]): 49.2% | remaining at 4 h (in vitro [6]): 34% | remaining at 8 h (in vitro [6]): 26.3% | remaining at 12 h (in vitro [6]): 18.8% | remaining at 24 h (in vitro [6]): 11% | Half lives (human liver microsomes): 46.9 | half-life (pepsin): 0.7 h | remaining at 5 min (pepsin): 83% | remaining at 10 min (pepsin): 74% | remaining at 20 min (pepsin): 63% | remaining at 0.5 h (pepsin): 56% | remaining at 1 h (pepsin): 42% | remaining at 2 h (pepsin): 34% | remaining at 4 h (pepsin): 31% | remaining at 8 h (pepsin): 19% | remaining at 12 h (pepsin): 11% | remaining at 24 h (pepsin): 7% | Pe set1 [7]: 8.08 ×10⁻⁶ cm/s | Pe set2 [7]: 12.5 ×10⁻⁶ cm/s | Pe set3 [7]: 11.81 ×10⁻⁶ cm/s | Papp [7]: 10.8 ×10⁻⁶ cm/s | half-life (in vitro [8]): 22 h | remaining at 1 h (in vitro [8]): 94% | remaining at 3 h (in vitro [8]): 84% | remaining at 5 h (in vitro [8]): 78% | remaining at 7 h (in vitro [8]): 72% | remaining at 9 h (in vitro [8]): 66% | remaining at 12 h (in vitro [8]): 56% | remaining at 24 h (in vitro [8]): 45% | remaining at 36 h (in vitro [8]): 33% | remaining at 48 h (in vitro [8]): 23% | remaining at 60 h (in vitro [8]): 22% | remaining at 72 h (in vitro [8]): 21% | Half-life of D-Leu1 amide proton (HDX) [9]: 2.83 h | Half-life of Leu2 amide proton (HDX) [9]: 1.83 h | Half-life of Leu3 amide proton (HDX) [9]: 12 h | Half-life of Leu6 amide proton (HDX) [9]: 13.3 h | Half-life of Tyr5 amide proton (HDX) [9]: 0.838 h | fraction unbound (in vitro [10]): 0.28 | tR [11]: 10.8 min | Papp A→B (in vitro [12]; Caco-2, Papp A-B + Elacridar avg): 13 ×10⁻⁶ cm/s | Papp A→B (in vitro [12]; Caco-2, Papp A-B avg): 3.25 ×10⁻⁶ cm/s | Papp B→A (in vitro [12]; Caco-2, Papp B-A + Elacridar avg): 16.9 ×10⁻⁶ cm/s | Papp B→A (in vitro [12]; Caco-2, Papp B-A avg): 75.4 ×10⁻⁶ cm/s | Papp A-B avg (second block) (Caco-2 cells): 3.25 ×10⁻⁶ cm/s | Papp A-B set 1 (second block) (Caco-2 cells): 3.14 ×10⁻⁶ cm/s | Papp A-B set 2 (second block) (Caco-2 cells): 3.36 ×10⁻⁶ cm/s | Papp B-A avg (second block) (Caco-2 cells): 75.4 ×10⁻⁶ cm/s | Papp B-A set 1 (second block) (Caco-2 cells): 77.4 ×10⁻⁶ cm/s | Papp B-A set 2 (second block) (Caco-2 cells): 73.3 ×10⁻⁶ cm/s
SMILES: CC(C)C[C@@H]1NC(=O)[C@H](Cc2ccc(O)cc2)NC(=O)[C@H]2CCCN2C(=O)[C@H](CC(C)C)NC(=O)[C@H](CC(C)C)NC(=S)[C@@H](CC(C)C)NC1=O [10a] (cyclo(L[dP]YL[X2]))

microsomal CLint (in vitro [1]): 144 µL/min/mg | remaining at 2 min (in vitro [1]): 67% | remaining at 10 min (in vitro [1]): 50% | remaining at 20 min (in vitro [1]): 28% | remaining at 0.5 h (in vitro [1]): 16% | remaining at 0.75 h (in vitro [1]): 4.69% | remaining at 1 h (in vitro [1]): 5.45% | AUC(0-t) (in vivo; iv): 510 ng·h/mL | Cmax (in vivo; iv): 1170 ng/mL | MRT (in vivo; iv): 0.4 h | Vd (in vivo; iv): 0.8 L/kg | clearance (in vivo; iv): 33.3 mL/min/kg | bioavailability (in vivo; po): 6.8% | AUC(0-t) (in vivo; po, 10 mg/kg): 345 ng·h/mL | Cmax (in vivo; po, 10 mg/kg): 55.9 ng/mL | MRT (in vivo; po, 10 mg/kg): 9 h | level at 3 h (in vivo; po, 10 mg/kg): 26.6 ng/mL | logD (physchem): 1.2 | Fold Change of AUClast p.o [5]: 393 | half-life (in vitro [6]): 1.55 h | remaining at 10 min (in vitro [6]): 88% | remaining at 0.5 h (in vitro [6]): 75% | remaining at 1 h (in vitro [6]): 62% | remaining at 2 h (in vitro [6]): 39% | remaining at 4 h (in vitro [6]): 30% | remaining at 8 h (in vitro [6]): 6% | remaining at 12 h (in vitro [6]): 3% | Half lives (human liver microsomes): 10.3 | half-life (pepsin): 1.75 h | remaining at 2 min (pepsin): 97% | remaining at 10 min (pepsin): 84% | remaining at 20 min (pepsin): 77% | remaining at 0.5 h (pepsin): 71% | remaining at 1 h (pepsin): 65% | remaining at 2 h (pepsin): 46% | remaining at 4 h (pepsin): 19% | remaining at 8 h (pepsin): 11% | remaining at 12 h (pepsin): 7% | Papp [7]: 6.13 ×10⁻⁶ cm/s | half-life (in vitro [8]): 12 h | remaining at 2 h (in vitro [8]): 82% | remaining at 4 h (in vitro [8]): 69% | remaining at 8 h (in vitro [8]): 57% | remaining at 16 h (in vitro [8]): 39% | remaining at 24 h (in vitro [8]): 28% | remaining at 48 h (in vitro [8]): 8% | remaining at 72 h (in vitro [8]): 2.65% | fraction unbound (in vitro [10]): 0.53
SMILES: CC(C)C[C@@H]1NC(=O)[C@@H](CC(C)C)NC(=O)[C@H](CC(C)C)N(C)C(=O)[C@H](Cc2ccc(O)cc2)NC(=O)[C@H]2CCCN2C(=O)[C@H](CC(C)C)NC1=O [10k] (cyclo(LL[dP]Y[NMeL][dL]))

% solubility [2]: 49% | logD (physchem): 1.61 | Papp [7]: 2.6 ×10⁻⁶ cm/s | tR [11]: 15.5 min
SMILES: CC(C)C[C@@H]1NC(=O)[C@@H](CC(C)C)NC(=O)[C@H]2CCCN2C(=S)[C@H](CC(C)C)NC(=O)[C@@H](CC(C)C)NC(=O)[C@H](CC(C)C)NC(=O)[C@@H]2CCCN2C(=O)[C@@H](C)NC1=O [12b] (cyclo(L[dL][X4][dL]L[dA]P))

% solubility [2]: 41% | logD (physchem): 1.37 | Papp [7]: 5.7 ×10⁻⁶ cm/s | tR [11]: 15 min
SMILES: CC(C)C[C@@H]1NC(=O)[C@@H]2CCCN2C(=O)[C@@H](C)NC(=S)[C@H](CC(C)C)NC(=O)[C@@H](CC(C)C)NC(=O)[C@H]2CCCN2C(=O)[C@H](CC(C)C)NC(=O)[C@@H](CC(C)C)NC1=O [12e] (cyclo([dL]L[dP][dL][X16]PL))
